Assay results reported in paper PMC11975549, “Development of Potent Type V MAPK Inhibitors: Design, Synthesis, and Biological Evaluation of Benzothiazole Derivatives Targeting p38α MAPK in Breast Cancer Cells” (Archiv Der Pharmazie, 2025).
Several values for one entry are separate records, joined by “and”; a condition that tells them apart may be missing. Identical values can stand only once. Like-named read-outs stand apart in the source and are kept apart here. One block for each compound: values may come before it.

Columns and labels:
[1] = system: p38α MAPK; details: cited from earlier work
[2] = system: prostate cancer cells; parameters: method as in PMID 31838901; details: cited from earlier work
[3] = system: normal prostate cells; parameters: method as in PMID 31838901; details: cited from earlier work
[4] = system: p38α MAPK; parameters: method as in PMID 34328852; details: HeLa cells, compared with the control anisomycin (30 μM); cited from earlier work
[5] = system: HeLa cells; parameters: method as in PMID 34328852; details: cited from earlier work
[6] = system: MCF7 cell line; parameters: method as in PMID 30792101; details: MTT assay; cited from earlier work
[7] = system: MDA‐MB‐231 cell line; parameters: method as in PMID 30792101; details: MTT assay; cited from earlier work
[8] = system: p38α MAPK; parameters: method as in PMID 34894967; details: MCF‐7 cells; cited from earlier work
[9] = system: MCF7 cells; assay: MTT antiproliferative assay, MCF7; format: cell-based, human; details: for IC50: MTT, 24 h incubation; for Selectivity MCF7: Selectivity index = L929 IC50 / MCF7 IC50 (24 h)
Method: (§1) Cell culture experiments were performed to assess the antiproliferative efficacy of the synthesized benzothiazole compounds on the MCF7 and MDA‐MB‐231 cell lines. The anticancer activity of the compounds were compared with the L929 healthy cell line as a control. Doxorubicin and cisplatin, the anticancer agents, were employed as positive controls.
(§2) Human epithelial breast adenocarcinoma (MDA‐MB‐231) (ATCC® HTB‐26™), human epithelial breast adenocarcinoma (MCF7) (ATCC® HTB‐22™), and healthy mouse fibroblast (L929) (ATCC® CRL‐10317™) cells were obtained commercially from ATCC.
(§3) MDA‐MB‐231, MCF7, and L929 cells were seeded in 25 cm² flasks. DMEM medium containing 10% FBS, 1% Penicillin‐Streptomycin, L‐Glutamine, and NaHCO₃ was used as the cell culture medium. The cells were incubated and propagated at 37°C in an environment containing 5% CO₂ and 95% humidity. When the cells reached 80%–90% confluency, they were passaged to different media. During passaging, DMEM was first withdrawn, and the cells were washed with PBS to remove FBS from the medium. Then, Trypsin‐EDTA solution was added to the flask to detach the cells, and the flask was kept in a CO₂ incubator for approximately 1 min. To stop the activity of Trypsin‐EDTA medium containing FBS was added to the flask. The cells were collected into a Falcon tube and centrifuged at 800 rpm for 5 min at room temperature. The supernatant was discarded, and the cell pellet was resuspended in the medium and seeded on cell culture plates according to the experimental protocol.
(§4) A total of 2 mg of each compound was dissolved in an appropriate amount of dimethyl sulfoxide (DMSO) to prepare 10 mM stock solutions. These stock solutions were then diluted to create 100 μM intermediate stocks and stored at −80°C. Commercially purchased cisplatin and doxorubicin HCl (Sigma, St. Louis, MO) were dissolved in DMSO following the manufacturer's protocol to create 20 mM stock solutions. These standard drug molecules were diluted from the stock solution, divided into 100 μM aliquots, and stored at –80°C until use.
(§5) MTT analysis was performed to evaluate the in vitro cytotoxicity of the synthesized compounds against different cancer cell lines. Cells used in the cytotoxicity experiments were cultured in DMEM medium supplemented with 10% FBS. Cells suspended in the medium (2 × 10⁴ cells/mL) were seeded into 96‐well culture plates and incubated at 37°C in a 5% CO₂ incubator. After 12 h, compounds were added at different doses (2 µL) to cells (2 × 10⁴) in the 96‐well plates and incubated at 37°C for 24 h.
(§6) The incubated cells were then treated with 20 µL of MTT solution and incubated at 37°C for 4 h. The supernatant was carefully removed from each well, and 100 µL of DMSO was added to each well to dissolve the formazan crystals formed by the cellular reduction of MTT. The absorbance was measured at 570 nm using an ELISA reader. […] At the end of the experiment, the device calculated the IC50 value for each well, and the average values were recorded. Each experiment was performed in at least three replicates.

[10] = system: MDA‐MB‐231 cells; assay: MTT antiproliferative assay, MDA-MB-231; format: cell-based, human; details: for IC50: MTT, 24 h incubation; for Selectivity MDA‐MB‐231: Selectivity index = L929 IC50 / MDA‐MB‐231 IC50 (24 h)
Method: as §1, §2, §3, §4, §5, §6

[11] = system: L929 cells; assay: MTT cytotoxicity assay, L929 healthy cells; format: cell-based; details: healthy mouse fibroblast
Method: as §1, §2, §3, §4, §5, §6

[12] = system: p38 MAPKα; assay: p38 MAPK alpha ELISA, total level in treated MCF7 cells normalised to total protein (BCA); format: cell-based, human; details: MCF7 cells exposed to compound
From the text: To account for variations in protein quantities among the cells. The total protein concentrations in cells subjected to the drugs were quantified. The p38 MAPKα levels were adjusted by dividing by the protein levels, yielding results represented as ng/μg protein (Table 3).
A bicinchoninic acid (BCA) protein assay kit (catalog no. 23227) was obtained from Thermo‐Fisher Scientific (IL, USA) and used to detect total protein by the BCA assay. In this assay, the reaction between BCA, Cu²⁺ ions, and Cu⁺ ions form a purple complex in alkaline conditions. The absorbance of this complex was measured at 562 nm, and the results were expressed in mg/mL.
The p38 MAPK alpha ELISA Kit (ab221012; Abcam, Cambridge, MA) was used to measure the levels of […] in cell lysates according to the manufacturer's instructions. The SimpleStep Enzyme‐Linked Immunosorbent Assay (ELISA) kit was designed to assess total p38 MAPKα protein semi‐quantitatively. The SimpleStep ELISA uses a reporter‐conjugated detection antibody, and an affinity‐tag labeled capture antibody to immunocapture the sample analyte in solution. An anti‐tag antibody coating the well immobilizes the entire complex (capture antibody, analyte, and detection antibody).
Samples or controls were added to the wells, followed by the Antibody Cocktail to complete the test. After incubation, the wells were washed to remove unbound material. […] The levels of MAPK were normalized to total protein content.

Structure (SMILES): COc1cccc(-c2nn(-c3ccccc3)cc2-c2ccncc2)c1 [Compound 4d]
IC50 ([1]; relative selectivity in comparison to 15 other kinases, read-out: IC50 p38α): 515 nM

Structure (SMILES): COc1cccc(CNC(=O)c2ccc(N3CCOCC3)c(NC(=O)Nc3ccc(F)cc3F)c2)c1 [Compound 5e]
viability, proliferation and migration of prostate cancer cells [2]: inhibited the viability and reduced the proliferation and migration | damage to normal prostate cells [3]: without causing considerable damage

Structure (SMILES): COc1c(-c2cc(-c3ccc(C)o3)c(C#N)c(N)n2)c(O)c(Br)c2occc12 [Compound 6f]
IC50 ([1]; read-out: IC50 p38α MAP kinase): 40 nM

Structure (SMILES): O=c1oc2ccccc2c(O)c1C1=CC(c2ccc(F)cc2)NC(=S)N1 (centres unmarked) [Compound 7g]
suppression of p38α MAPK activation [4]: 0.64 | reduction in cell viability ([5]; 10 μM): 80% | reduction in cell viability ([5]; 30 μM): 72%

Structure (SMILES): COc1c(-c2cc(-c3ccc(F)cc3)c(C#N)c(=N)[nH]2)c(O)c(Br)c2occc12 [Compound 8h]
IC50 ([1]; read-out: IC50 p38α MAPK): 270 nM

Structure (SMILES): COc1c(C(=O)/C=C/c2ccc(C)o2)c(O)c(Br)c2occc12 [Compound 9i]
IC50 ([1]; read-out: IC50 p38α MAP kinase): 40 nM | IC50 [6]: 1.35 µM | IC50 [7]: 2.09 µM

Structure (SMILES): Cc1ccc(C(=O)/C=C/c2ccc(Oc3ccc(Br)cc3)cc2)cc1 [Compound 10j]
total p38α MAPK and phosphorylated enzyme levels [8]: reduced

Structure (SMILES): CCNC(=O)c1ccc(C)c(NC(=O)c2ccc3c(-c4ccc(Cl)cc4)n[nH]c3c2)c1 [Compound 11k, 3‐(4‐chlorophenyl)‐N‐(5‐(ethylcarbamoyl)‐2‐methylphenyl)‐1H‐indazole‐6‐carboxamide]
IC50 ([1]; read-out: IC50 p38α MAPK): 3370 ± 240 nM

Structure (SMILES): Clc1cccc(Cl)c1Nc1ccccc1Cc1nncn1Nc1nc2ccccc2s1 [Compound 12l]
IC50 ([1]; read-out: IC50 p38α MAPK): 36 nM

Structure (SMILES): O=C(CSc1nnc(COc2ccccc2)n1-c1ccc(F)cc1)Nc1nc2ccccc2s1 [Compound 13m]
IC50 ([1]; read-out: IC50 p38α MAPK): 31 nM

IC50 ([9]; Homo sapiens, MCF7): 8.83 ± 0.43 µM | IC50 ([10]; Homo sapiens, MDA-MB-231): 11.78 ± 0.11 µM
Structure (SMILES): O=C(NCc1nc2ccccc2s1)c1ccco1 [Compound 15, N‐(Benzo[d]thiazol‐2‐ylmethyl) furan‐2‐carboxamide]
Selectivity MCF7 [9]: 3.031 | Selectivity MDA‐MB‐231 [10]: 2.272 | IC50 ([11]; L929, 24 h incubation): 26.8 ± 0.84 µM | Total p38α MAPK levels [12]: 0.155 ng/μg protein and 0.155 ± 0.045 ng/μg protein

IC50 ([9]; Homo sapiens, MCF7): 11.1 ± 0.23 µM | IC50 ([10]; Homo sapiens, MDA-MB-231): 16.7 ± 0.36 µM
Structure (SMILES): COc1ccc(C(=O)NCc2nc3ccccc3s2)cc1 [Compound 17, N‐(Benzo[d]thiazol‐2‐ylmethyl)‐4‐methoxybenzamide]
Selectivity MCF7 [9]: 2.271 | Selectivity MDA‐MB‐231 [10]: 1.499 | IC50 ([11]; L929, 24 h incubation): 25.09 ± 0.18 µM | Total p38α MAPK levels [12]: 6.411 ± 1.604 ng/μg protein

IC50 ([9]; Homo sapiens, MCF7): 11.2 ± 0.75 µM | IC50 ([10]; Homo sapiens, MDA-MB-231): 20.2 ± 0.73 µM
Structure (SMILES): Cc1ccc(C(=O)NCc2nc3ccccc3s2)cc1 [Compound 18, N‐(Benzo[d]thiazol‐2‐ylmethyl)‐4‐methylbenzamide]
Selectivity MCF7 [9]: 2.604 | Selectivity MDA‐MB‐231 [10]: 1.442 | IC50 ([11]; L929, 24 h incubation): 29.1 ± 0.52 µM | Total p38α MAPK levels [12]: 1.34 ± 0.154 ng/μg protein

IC50 ([9]; Homo sapiens, MCF7): 6.19 ± 1.05 µM | IC50 ([10]; Homo sapiens, MDA-MB-231): 10.74 ± 0.03 µM
Structure (SMILES): O=C(Cc1ccccc1)Nc1nc2ccccc2s1 [Compound 19, N‐(Benzo[d]thiazol‐2‐yl)‐2‐phenylacetamide]
Selectivity MCF7 [9]: 15.171 | Selectivity MDA‐MB‐231 [10]: 8.744 | IC50 ([11]; L929, 24 h incubation): 93.9 ± 1.9 µM | Total p38α MAPK levels [12]: 0.112 ng/μg protein and 0.112 ± 0.001 ng/μg protein

IC50 [9]: 7.09 ± 0.02 µM | IC50 [10]: 6.42 ± 0.07 µM
Structure (SMILES): COc1cccc(CC(=O)Nc2nc3ccccc3s2)c1 [Compound 21, N‐(Benzo[d]thiazol‐2‐yl)‐2‐(3‐methoxyphenyl) acetamide]
Selectivity MCF7 [9]: 9.354 | Selectivity MDA‐MB‐231 [10]: 10.330 | IC50 ([11]; 24 h incubation): 66.3 ± 1.82 µM | Total p38α MAPK levels [12]: 1.333 ± 0.007 ng/μg protein

IC50 [9]: 5.05 ± 0.01 µM | IC50 [10]: 3.8 ± 0.28 µM
Structure (SMILES): O=C(Cc1ccc(F)cc1)Nc1nc2ccccc2s1 [Compound 22, N‐(Benzo[d]thiazol‐2‐yl)‐2‐(4‐fluorophenyl) acetamide]
Selectivity MCF7 [9]: 41.697 | Selectivity MDA‐MB‐231 [10]: 55.413 | IC50 ([11]; 24 h incubation): 210.6 ± 1.67 µM | Total p38α MAPK levels [12]: 3.952 ± 0.311 ng/μg protein

IC50 [9]: 8.24 ± 0.19 µM | IC50 [10]: 7.04 ± 0.18 µM
Structure (SMILES): O=C(Cc1ccc(Cl)cc1)Nc1nc2ccccc2s1 [Compound 23, N‐(Benzo[d]thiazol‐2‐yl)‐2‐(4‐chlorophenyl) acetamide]
Selectivity MCF7 [9]: 6.550 | Selectivity MDA‐MB‐231 [10]: 7.666 | IC50 ([11]; 24 h incubation): 54 ± 1.08 µM | Total p38α MAPK levels [12]: 2.331 ± 1.241 ng/μg protein

IC50 [9]: 11.1 ± 0.37 µM | IC50 [10]: 18.8 ± 0.23 µM
Structure (SMILES): O=C(Cc1cccs1)NCc1nc2ccccc2s1 [Compound 28, N‐(Benzo[d]thiazol‐2‐ylmethyl)‐2‐(thiophen‐2‐yl) acetamide]
Selectivity MCF7 [9]: 2.794 | Selectivity MDA‐MB‐231 [10]: 1.655 | IC50 ([11]; 24 h incubation): 31 ± 0.33 µM | Total p38α MAPK levels [12]: 2.542 ± 0.228 ng/μg protein

Structure (SMILES): CS(=O)(=O)CCNCc1ccc(-c2ccc3ncnc(Nc4ccc(OCc5cccc(F)c5)c(Cl)c4)c3c2)o1 [lapatinib]
IC50 [6]: 4.69 µM | IC50 [7]: 4.69 µM
